# Assay results as given in patent US20150182667A1, “Composition with Biofilm Dispersal Agents” (Vanderbilt University, priority 2012, published 2015).
# Like-named read-outs stand apart in the source and are kept apart here.
# How the values were obtained:
# [1] = test system: biofilm derived P. aeruginosa clinical strains (18189, 418); assay: Biofilm susceptibility, Calgary Biofilm device (MBEC plates): MBIC and viable CFU; assay type: cell-based, Pseudomonas aeruginosa; conditions: * = with 5 mM D-AA; for Biofilm (MBIC) 418: P. aeruginosa 418 biofilm; for Biofilm (MBIC) 18189: P. aeruginosa 18189 biofilm
# Procedure: Biofilm susceptibility to antimicrobial agents in the presence and absence of D-AA was determined using the Calgary Biofilm device. Briefly, biofilms from overnight cultures were established as above on individual pegs of the minimum biofilm eradication concentration (MBEC) plates (Innovotech, Canada) with agitation for 48 h at 37° C. Following incubation, the lid with pegs was removed from the incubation plate, washed by re-suspending pegs into plate with wells containing 200 μl of 1×PBS, then placed into a 96-well challenge plate containing pre-diluted antibiotics with or without an […] for an additional 24 h at 37° C. Following challenge plates were washed, and the attached viable cells on PEGs within the biofilm were determined by plating serial dilutions onto blood agar plates (Remel). Corresponding minimal biofilm inhibitory concentration (MBIC) was also determined by measuring the optical density in individual wells of the challenge plate at 600 nm. The lowest concentration of antibiotic for which an optical density of <0.100 was recorded as the MBIC. For each antibiotic, the MBIC was determined in the presence or absence of a mixture of D-AA (D-Phenylalanine, D-Methionine, and D-Tryptophan) at an equimolar concentration of 5 mM. Three independent experiments were performed for each of these assays, with a minimum of 3 replicates.
# [2] = test system: planktonic P. aeruginosa clinical strains (18189, 418); assay: MIC by CLSI broth microdilution, planktonic bacteria; assay type: cell-based, Pseudomonas aeruginosa; conditions: * = with 5 mM D-AA; for MIC: Pseudomonas aeruginosa
# Procedure: Overnight cultures of bacterial strains were diluted to a final concentration of 5×10^5 CFU/ml in MHB-II. The resulting bacterial suspension was aliquoted (100 μL) into polystyrene round-bottom 96-well plates containing 100 μL of a 2× concentration of a previously serially diluted (1:2) antibiotic. Each antimicrobial tested was serially diluted 10 times. Following the addition of bacteria, the microtiter plate was covered and was incubated under stationary conditions at 37° C. in the presence of 1× antibiotics. […] MICs of antibiotics were determined in triplicate according to the Clinical and Laboratory Standards Institute (CLSI) broth microdilution as described by the performance standards for antimicrobial susceptibility testing (M100-S22, January 2012).
# human dermal fibroblasts = assay: CellTiter-Fluor cell viability assay; assay type: cell-based; conditions: human fibroblasts, higher concentrations
# Procedure: To observe the cellular viability of PUR/D-AA composites, human dermal fibroblasts and human osteoblasts (PromoCell) were maintained in Dulbecco's Modified Eagle Medium (DMEM; Invitrogen) supplemented with 10% Fetal Bovine Serum (FBS) and 1× penicillin/streptomycin. Human epidermal keratinocytes (HEK-001; ATCC CRL-2404) were maintained in Keratinocyte-serum free media (GIBCO) supplemented with 5 ng/mL human recombinant EGF and 2 mM L-glutamine. All cell lines were cultured at 37° C. in 5% CO2. Prior to each assay cells were seeded at 100% confluence in black-clear bottom 96-well plates. After 24 h, cells were exposed to media containing D-AA, 50 mM-1 nM, and incubated for 24-48 h at 37° C. in 5% CO2. Following treatment, cells were washed, resuspended in 100 μL of sterile saline and viability was determined using the CellTiter-Flour Cell Viability Assay (Promega) following the manufacturer's instructions. Viability assays were performed in triplicate with a minimum of 3 replicates. Viability was reported as the percentage of viable cells relative to untreated controls.
# Human dermal fibroblasts and osteoblasts (PromoCell, Heidelberg, Germany) were maintained in Dulbecco's Modified Eagle Medium (DMEM; Invitrogen, Grand Island, N.Y.) supplemented with 10% Fetal Bovine Serum (FBS) and 1× penicillin/streptomycin at 37° C. in 5% CO2. Prior to each assay, cells were seeded at 100% confluence in black-clear bottom 96-well plates. After 24 h cells were exposed to media containing D-AA (1 nM-50 mM) and incubated for 24 h. Following treatment, cells were washed, re-suspended in 100 μL of sterile saline, and assessed for viability using the CellTiter-Fluor Cell Viability Assay (Promega, Madison, Wis.) following the manufacturer's instructions. Viability assays were performed in triplicate with a minimum of four replicates. Viability was reported as the percentage of viable cells relative to untreated controls.
# [3] = test system: S. aureus clinical isolate biofilms; assay: Biofilm dispersal and prevention, crystal violet 96-well assay (Example 1); assay type: cell-based, Staphylococcus aureus; conditions: 5 mM
# Procedure: (§1) Biofilm formation was performed under static conditions in polystyrene 96-well plates (Corning, Inc., Corning, N.Y.). Briefly, overnight bacterial cultures were diluted to an OD600 of 0.1 in CA-MHB and 10 μL was added to individual wells filled with 190 μl of media and incubated at 37° C. for 48 h without shaking for biofilm growth. Following incubation, culture media was removed and 200 μL media containing individual D-AA at concentrations of 5 mM-1 nM was added. Plates were incubated for an additional 24 h at 37° C. After treatment, plates were gently washed with 1× phosphate buffered saline (PBS; pH 7.4) to remove non-adherent bacteria. Biofilms (i.e. attached cells) were then stained with 0.1% (w/v) crystal violet for 10 min, washed, followed by solubilization of crystal violet with 33% (v/v) acetic acid for 10 min. Biofilm biomass was determined by measuring the absorbance at 570 nm using a microtiter plate reader. For assays measuring the ability of D-AA to block biofilm formation, cells were grown under biofilm conditions as above in the presence of media containing D-AA. Three independent experiments with a minimum of 4 replicates were performed for each experimental assay. Representative images of the plates of CV stained biofilms following treatment with D-AA, prior to solubilization, were taken using a digital camera.
# [4] = test system: S. aureus clinical isolates biofilms; assay: Biofilm dispersal and prevention, crystal violet assay (Example 3); assay type: cell-based
# Procedure: Like in Example 1, biofilm formation was assessed under static conditions using polystyrene 96-well plates (Corning, Inc.). Overnight bacterial cultures were diluted to an OD600 of 0.1 in TSB (˜10^7 CFU/mL), and 20 μL were added to individual wells filled with 180 μL of media and incubated at 37° C. for 48 h. To assess the biofilm dispersal activity of D-AAs, the culture medium from biofilms was removed after 48 h and 200 μL fresh medium containing either an individual D-AA or an equimolar mixture of D-AAs (1:1:1: D-Met:D-Pro:D-Trp) were added at the indicated concentrations. After treatment with D-AA(s) for 24 h, plates were gently washed with 1× phosphate buffered saline (PBS) to remove unattached cells, stained with 0.1% (w/v) crystal violet (Sigma Aldrich) for 10 min, rinsed with PBS, and then solubilized with 80% (v/v) ethanol. Biofilm biomass was determined by measuring the absorbance of solubilized stain at 570 nm using a microtiter plate reader. For assays measuring the ability of D-AA to block biofilm formation, cells were grown under biofilm conditions as above in the presence of media containing D-AAs. Representative images of the plates of CV-stained biofilms following treatment with D-AA prior to solubilization were taken using a digital camera. All assays were repeated in triplicate with a minimum of four technical replicates.
# [5] = test system: P. aeruginosa clinical isolate biofilms; assay: Biofilm dispersal and prevention, crystal violet 96-well assay (Example 1); assay type: cell-based, Pseudomonas aeruginosa; conditions: 5 mM
# Procedure: as §1
# [6] = Release of D-AAs from PUR scaffolds in PBS (HPLC); assay type: physicochemical
# Procedure: Also, kinetic release assays were performed on the PUR scaffolds by incorporating 10 wt % of a 1:1:1 mixture of D-Tr:D-Pro:D-Met incubated in PBS for up to 8 weeks. The medium was be sampled twice weekly and analyzed for D-AAs by HPLC.
# PUR scaffolds incorporating 10 wt % of a 1:1:1 mixture of D-Met:D-Pro:D-Trp were incubated in PBS at 37° C. under static conditions for up to 8 weeks. This mixture was evaluated in vitro, in vivo and in the release kinetics tests to account for potential interactions between D-AAs during release. The medium was sampled on days 1, 2, 4, 7, 10, 14, 21, and 28 and analyzed for D-AAs by HPLC using a system equipped with a Waters 1525 binary pump and a 2487 Dual-Absorbance Detector at 200 nm. Samples of released D-AAs were eluted through an Atlantis HILIC Silica column (5 μm particle size, 4.6 mm diameter×250 mm length) using an isocratic mobile phase flowing at 1 mL/min. The mobile phase contained 2.5 mM potassium dihydrogen phosphate with pH=2.85 (A) and Acetonitrile (B) at a ratio of A25:B75. The column oven temperature was maintained at 30° C. Sample concentration was determined in reference to an external standard curve using the Waters Breeze system. Standard curves were prepared in the following concentration ranges: (1) 7.8 μg/mL to 1 mg/mL for D-Met and D-Pro and (2) […] to 100 μg/mL for D-Trp.
# [7] = P. aeruginosa 418, read-out: Planktonic (MIC) 418
# [8] = P. aeruginosa 18189, read-out: Planktonic (MIC) 18189
Compound,Biofilm (MBIC) 418 [1] [µg/mL],Biofilm (MBIC) 18189 [1] [µg/mL],Planktonic (MIC) 418 ([2]; P. aeruginosa 418) [µg/mL],Planktonic (MIC) 18189 ([2]; P. aeruginosa 18189) [µg/mL],"MIC [2, 7] [µg/mL]","MIC [2, 8] [µg/mL]",cytotoxicity (human dermal fibroblasts),"biofilm dispersal against panel of clinical isolates (biofilm biomass OD570) ([3]; S. aureus clinical isolates, FIGS. 3A, 3C)","biofilm dispersal in pre-screening of eight D-AAs ([3]; pre-formed S. aureus biofilms, FIG. 1)","dispersal of established biofilms (biofilm biomass) ([4]; panel of clinical isolates of methicillin-resistant S. aureus (n=5), 5 mM, 24 h, FIGS. 8A, 8C)","biofilm dispersal in pre-screening of eight individual D-AAs ([4]; pre-formed biofilms of four clinical isolates, 0.001-50 mM, FIG. 7)","biofilm dispersal against panel of clinical isolates (biofilm biomass OD570) ([5]; P. aeruginosa clinical isolates, FIGS. 3A, 3C)","biofilm dispersal in pre-screening of eight D-AAs ([5]; pre-formed P. aeruginosa biofilms, FIG. 1)","cumulative release by day 14 ([6]; PUR scaffold with 10 wt % D-AA mixture, PBS 37° C.) [%]","burst release ([6]; day 1, PUR scaffold with 10 wt % 1:1:1 D-Met:D-Pro:D-Trp, PBS 37° C.) [%]",b parameter of Weibull model ([6]; fit of D-AA release data)
"NCC[C@H](O)C(=O)N[C@@H]1C[C@H](N)[C@@H](O[C@H]2O[C@H](CN)[C@@H](O)[C@H](O)[C@H]2O)[C@H](O)[C@H]1O[C@H]1O[C@H](CO)[C@@H](O)[C@H](N)[C@H]1O [AMK, Amikacin]",>256,>256,16,16,16,16,–,–,–,–,–,–,–,–,–,–
"CSCC[C@@H](N)C(=O)O [D-Met, D-methionine]",–,–,–,–,–,–,cytotoxicity was also observed,capable of significantly dispersing biofilm formation,relatively more effective at dispersing biofilms,effective at dispersing established biofilms,effective at dispersing biofilms,capable of significantly dispersing biofilm formation,relatively more effective at dispersing biofilms,~100,60,0.56
"C[C@@H](O)[C@H]1C(=O)N2C(C(=O)O)=C(SCCN=CN)C[C@H]12 [IMI, Imipenem]",>128,>128,64,128,128,64,–,–,–,–,–,–,–,–,–,–
